Results as given in the kinase profiling compilation of Christmann-Franck et al. (2016).

Tests used:
Assay in all cases: radiometric filter-binding kinase assay, Kinase HotSpot
Details in all cases: compound 0.5 µM; ATP 10 µM
EPHB2 (human) = EPHB2 (human) (UniProt P29323)
CSNK1A1 (human) = CSNK1A1 (human) (UniProt P48729)
CAMKK2 (human) = CAMKK2 (human) (UniProt Q96RR4)
TEC (human) = TEC (human) (UniProt P42680)
MARK1 (human) = MARK1 (human) (UniProt Q9P0L2)
PAK6 (human) = PAK6 (human) (UniProt Q9NQU5)
TLK2 (human) = TLK2 (human) (UniProt Q86UE8)
ULK3 (human) = ULK3 (human) (UniProt Q6PHR2)
HIPK2 (human) = HIPK2 (human) (UniProt Q9H2X6)
HIPK1 (human) = HIPK1 (human) (UniProt Q86Z02)
STK24 (human) = STK24 (human) (UniProt Q9Y6E0)
NUAK1 (human) = NUAK1 (human) (UniProt O60285)
PHKG1 (human) = PHKG1 (human) (UniProt Q16816)
PHKG1 (human), sequence (Q16816 whole entry, looked up): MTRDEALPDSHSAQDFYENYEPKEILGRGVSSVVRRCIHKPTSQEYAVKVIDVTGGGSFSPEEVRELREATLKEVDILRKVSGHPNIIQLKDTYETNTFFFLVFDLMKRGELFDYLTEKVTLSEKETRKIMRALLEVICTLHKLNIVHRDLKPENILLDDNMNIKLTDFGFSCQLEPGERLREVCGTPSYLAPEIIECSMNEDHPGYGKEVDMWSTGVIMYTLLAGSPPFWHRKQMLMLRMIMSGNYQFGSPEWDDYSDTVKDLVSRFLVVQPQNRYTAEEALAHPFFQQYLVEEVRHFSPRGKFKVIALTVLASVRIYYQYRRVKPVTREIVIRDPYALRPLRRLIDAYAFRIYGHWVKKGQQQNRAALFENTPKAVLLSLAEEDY

CDK3 CCNE1 (human) = CDK3 CCNE1 (human) (UniProt Q00526+P24864)
CDK3 CCNE1 (human), sequence (P24864 whole entry, looked up): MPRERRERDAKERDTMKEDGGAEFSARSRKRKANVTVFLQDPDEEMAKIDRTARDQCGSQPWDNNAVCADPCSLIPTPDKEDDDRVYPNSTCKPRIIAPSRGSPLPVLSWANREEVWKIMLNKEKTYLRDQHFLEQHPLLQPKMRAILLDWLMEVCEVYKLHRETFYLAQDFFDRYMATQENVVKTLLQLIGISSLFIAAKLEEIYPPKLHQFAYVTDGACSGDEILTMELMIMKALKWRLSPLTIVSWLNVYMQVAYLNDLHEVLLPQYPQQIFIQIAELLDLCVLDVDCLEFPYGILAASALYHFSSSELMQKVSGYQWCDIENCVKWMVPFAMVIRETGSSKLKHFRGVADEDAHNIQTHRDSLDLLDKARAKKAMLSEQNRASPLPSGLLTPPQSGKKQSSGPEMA
CDK3 CCNE1 (human), sequence (Q00526 whole entry, looked up): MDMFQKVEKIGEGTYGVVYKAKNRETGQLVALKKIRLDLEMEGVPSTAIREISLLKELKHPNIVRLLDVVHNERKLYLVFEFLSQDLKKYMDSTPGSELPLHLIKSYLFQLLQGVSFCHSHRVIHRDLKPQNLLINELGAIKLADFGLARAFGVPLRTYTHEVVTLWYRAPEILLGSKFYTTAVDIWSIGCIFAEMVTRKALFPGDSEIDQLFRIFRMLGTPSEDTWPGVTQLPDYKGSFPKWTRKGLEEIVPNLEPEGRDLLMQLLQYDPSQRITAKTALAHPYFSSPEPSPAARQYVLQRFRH

ERBB4 (human) = ERBB4 (human) (UniProt Q15303)
MAPK10 (human) = MAPK10 (human) (UniProt P53779)
AKT3 (human) = AKT3 (human) (UniProt Q9Y243)
MATK (human) = MATK (human) (UniProt P42679)
MATK (human), sequence (P42679 whole entry, looked up): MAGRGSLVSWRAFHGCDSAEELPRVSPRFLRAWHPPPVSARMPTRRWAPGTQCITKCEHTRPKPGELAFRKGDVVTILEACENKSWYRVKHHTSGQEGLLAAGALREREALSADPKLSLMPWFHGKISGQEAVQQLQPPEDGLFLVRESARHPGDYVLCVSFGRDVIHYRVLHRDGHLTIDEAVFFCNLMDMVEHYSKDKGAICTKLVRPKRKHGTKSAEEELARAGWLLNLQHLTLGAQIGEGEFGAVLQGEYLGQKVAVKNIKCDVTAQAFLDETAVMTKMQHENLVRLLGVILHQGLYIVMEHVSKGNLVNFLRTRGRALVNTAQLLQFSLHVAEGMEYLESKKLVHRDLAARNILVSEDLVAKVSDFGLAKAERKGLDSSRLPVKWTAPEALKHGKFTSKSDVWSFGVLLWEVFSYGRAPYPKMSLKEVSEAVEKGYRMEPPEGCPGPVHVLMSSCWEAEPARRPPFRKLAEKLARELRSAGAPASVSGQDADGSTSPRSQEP

CSNK1G2 (human) = CSNK1G2 (human) (UniProt P78368)
GRK6 (human) = GRK6 (human) (UniProt P43250)
CHUK (human) = CHUK (human) (UniProt O15111)
CHUK (human), sequence (O15111 whole entry, looked up): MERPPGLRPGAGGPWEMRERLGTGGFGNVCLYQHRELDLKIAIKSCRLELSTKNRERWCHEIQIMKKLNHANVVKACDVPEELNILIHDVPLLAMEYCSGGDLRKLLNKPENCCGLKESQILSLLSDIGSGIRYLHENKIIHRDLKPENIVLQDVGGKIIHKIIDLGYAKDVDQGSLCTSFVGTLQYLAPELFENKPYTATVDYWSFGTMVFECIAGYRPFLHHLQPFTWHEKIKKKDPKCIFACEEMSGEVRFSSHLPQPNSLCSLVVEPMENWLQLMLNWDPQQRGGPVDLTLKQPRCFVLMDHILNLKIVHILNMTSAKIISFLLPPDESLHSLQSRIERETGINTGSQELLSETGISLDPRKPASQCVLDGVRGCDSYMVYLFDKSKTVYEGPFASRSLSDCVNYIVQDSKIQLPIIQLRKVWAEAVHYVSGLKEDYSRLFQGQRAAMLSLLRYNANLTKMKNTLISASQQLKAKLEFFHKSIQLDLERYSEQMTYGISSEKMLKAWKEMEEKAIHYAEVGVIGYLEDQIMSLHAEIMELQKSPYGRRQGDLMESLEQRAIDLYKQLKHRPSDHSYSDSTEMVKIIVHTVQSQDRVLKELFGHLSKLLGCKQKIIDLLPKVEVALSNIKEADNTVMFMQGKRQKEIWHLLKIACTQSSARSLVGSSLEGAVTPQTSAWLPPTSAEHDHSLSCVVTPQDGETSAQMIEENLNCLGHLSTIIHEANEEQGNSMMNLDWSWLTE

CDK7 CCNH MNAT1 (human) = CDK7 CCNH MNAT1 (human) (UniProt P50613+P51948+P51946)
INSRR (human) = INSRR (human) (UniProt P14616)
GRK5 (human) = GRK5 (human) (UniProt P34947)
PLK2 (human) = PLK2 (human) (UniProt Q9NYY3)
MKNK2 (human) = MKNK2 (human) (UniProt Q9HBH9)
TAOK3 (human) = TAOK3 (human) (UniProt Q9H2K8)
TAOK3 (human), sequence (Q9H2K8 whole entry, looked up): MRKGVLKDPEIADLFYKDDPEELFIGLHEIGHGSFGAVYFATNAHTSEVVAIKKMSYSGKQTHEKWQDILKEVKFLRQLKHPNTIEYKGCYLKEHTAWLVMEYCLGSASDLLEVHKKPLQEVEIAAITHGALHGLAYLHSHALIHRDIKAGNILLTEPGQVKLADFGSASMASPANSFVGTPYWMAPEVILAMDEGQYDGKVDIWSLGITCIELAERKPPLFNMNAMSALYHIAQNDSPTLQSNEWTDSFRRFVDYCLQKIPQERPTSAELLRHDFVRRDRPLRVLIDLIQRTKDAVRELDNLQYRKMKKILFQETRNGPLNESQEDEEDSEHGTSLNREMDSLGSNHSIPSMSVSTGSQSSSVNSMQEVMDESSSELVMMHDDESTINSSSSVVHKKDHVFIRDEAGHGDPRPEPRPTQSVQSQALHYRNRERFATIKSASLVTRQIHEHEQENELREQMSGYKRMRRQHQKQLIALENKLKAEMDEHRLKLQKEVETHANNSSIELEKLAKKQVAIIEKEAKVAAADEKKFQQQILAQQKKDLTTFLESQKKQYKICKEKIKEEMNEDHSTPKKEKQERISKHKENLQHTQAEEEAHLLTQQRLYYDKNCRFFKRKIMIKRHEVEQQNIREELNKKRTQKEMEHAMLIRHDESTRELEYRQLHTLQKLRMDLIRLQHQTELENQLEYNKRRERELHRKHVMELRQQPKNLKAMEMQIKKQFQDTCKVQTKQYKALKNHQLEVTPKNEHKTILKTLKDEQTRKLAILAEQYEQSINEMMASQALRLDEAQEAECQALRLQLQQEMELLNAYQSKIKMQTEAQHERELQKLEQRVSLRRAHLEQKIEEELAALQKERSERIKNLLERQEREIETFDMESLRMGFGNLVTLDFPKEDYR

TTK (human) = TTK (human) (UniProt P33981)
TTK (human), sequence (P33981 whole entry, looked up): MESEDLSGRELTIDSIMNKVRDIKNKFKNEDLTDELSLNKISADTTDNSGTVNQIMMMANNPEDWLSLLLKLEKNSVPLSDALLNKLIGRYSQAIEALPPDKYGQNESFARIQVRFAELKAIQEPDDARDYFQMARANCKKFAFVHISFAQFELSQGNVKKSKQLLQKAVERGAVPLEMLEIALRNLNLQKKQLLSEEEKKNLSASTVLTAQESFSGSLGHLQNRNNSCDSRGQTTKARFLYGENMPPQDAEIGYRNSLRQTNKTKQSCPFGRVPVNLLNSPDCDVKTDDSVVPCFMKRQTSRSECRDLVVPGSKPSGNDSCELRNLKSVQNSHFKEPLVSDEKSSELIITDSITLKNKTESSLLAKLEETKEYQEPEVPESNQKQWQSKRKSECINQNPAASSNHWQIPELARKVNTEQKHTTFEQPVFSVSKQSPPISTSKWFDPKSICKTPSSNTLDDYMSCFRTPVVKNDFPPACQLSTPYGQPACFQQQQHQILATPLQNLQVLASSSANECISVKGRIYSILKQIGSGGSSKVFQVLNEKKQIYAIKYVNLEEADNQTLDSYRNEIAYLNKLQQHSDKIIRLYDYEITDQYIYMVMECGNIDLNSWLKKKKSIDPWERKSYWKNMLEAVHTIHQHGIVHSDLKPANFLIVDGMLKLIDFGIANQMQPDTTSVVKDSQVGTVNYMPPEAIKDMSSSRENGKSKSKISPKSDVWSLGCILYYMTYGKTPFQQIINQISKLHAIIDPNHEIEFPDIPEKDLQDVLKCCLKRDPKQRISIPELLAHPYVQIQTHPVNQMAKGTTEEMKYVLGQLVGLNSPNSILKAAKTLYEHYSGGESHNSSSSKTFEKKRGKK

PRKACG (human) = PRKACG (human) (UniProt P22612)
RPS6KA1 KD1 KD2 (human) = RPS6KA1 KD1 KD2 (human) (UniProt Q15418)
[1] = biological target: JAK1 JH1 catalytic (human) (UniProt P23458)
CDC42BPA (human) = CDC42BPA (human) (UniProt Q5VT25)
EGFR (human) = EGFR (human) (UniProt P00533)
NEK1 (human) = NEK1 (human) (UniProt Q96PY6)
CAMK1D (human) = CAMK1D (human) (UniProt Q8IU85)
CAMK1D (human), sequence (Q8IU85 whole entry, looked up): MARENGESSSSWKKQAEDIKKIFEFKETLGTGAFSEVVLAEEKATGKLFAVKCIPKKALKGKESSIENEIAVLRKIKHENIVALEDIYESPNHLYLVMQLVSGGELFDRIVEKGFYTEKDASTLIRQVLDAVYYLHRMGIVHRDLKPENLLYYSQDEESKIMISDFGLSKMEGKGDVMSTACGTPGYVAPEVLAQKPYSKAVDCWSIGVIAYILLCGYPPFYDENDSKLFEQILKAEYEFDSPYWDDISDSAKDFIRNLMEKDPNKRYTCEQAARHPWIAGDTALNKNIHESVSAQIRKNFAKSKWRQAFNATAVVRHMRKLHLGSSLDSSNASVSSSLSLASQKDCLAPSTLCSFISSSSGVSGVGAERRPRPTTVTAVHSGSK

STK38 (human) = STK38 (human) (UniProt Q15208)
EPHA6 (human) = EPHA6 (human) (UniProt Q9UF33)
DYRK2 (human) = DYRK2 (human) (UniProt Q92630)
TAOK2 (human) = TAOK2 (human) (UniProt Q9UL54)
CAMK2D (human) = CAMK2D (human) (UniProt Q13557)
PTK6 (human) = PTK6 (human) (UniProt Q13882)
PTK6 (human), sequence (Q13882 whole entry, looked up): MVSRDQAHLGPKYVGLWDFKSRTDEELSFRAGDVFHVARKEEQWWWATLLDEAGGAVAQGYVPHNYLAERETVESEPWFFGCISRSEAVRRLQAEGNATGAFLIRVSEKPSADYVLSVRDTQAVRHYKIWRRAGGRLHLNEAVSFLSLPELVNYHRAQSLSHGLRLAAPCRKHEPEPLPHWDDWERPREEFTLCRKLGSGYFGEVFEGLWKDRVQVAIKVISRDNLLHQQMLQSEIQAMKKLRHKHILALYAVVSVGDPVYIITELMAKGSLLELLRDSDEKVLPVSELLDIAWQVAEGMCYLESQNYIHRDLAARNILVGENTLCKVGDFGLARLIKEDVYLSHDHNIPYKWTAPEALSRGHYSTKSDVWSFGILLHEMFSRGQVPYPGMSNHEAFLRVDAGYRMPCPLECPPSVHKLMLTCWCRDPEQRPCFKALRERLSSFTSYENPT

GRK7 (human) = GRK7 (human) (UniProt Q8WTQ7)

SMILES: O=C1Nc2ccc(Br)cc2/C1=C\c1cc2c([nH]1)CCCC2
- residual activity (EPHB2 (human)): 85.4%
- residual activity (CSNK1A1 (human)): 100%
- residual activity (CAMKK2 (human)): 68.1%
- residual activity (TEC (human)): 129%
- residual activity (MARK1 (human)): 69%
- residual activity (PAK6 (human)): 89.8%
- residual activity (TLK2 (human)): 101%
- residual activity (ULK3 (human)): 55.5%
- residual activity (HIPK2 (human)): 91%
- residual activity (HIPK1 (human)): 97.2%
- residual activity (STK24 (human)): 94.2%
- residual activity (NUAK1 (human)): 27.7%
- residual activity (PHKG1 (human)): 60.2%
- residual activity (CDK3 CCNE1 (human)): 93.2%
- residual activity (ERBB4 (human)): 84.6%
- residual activity (MAPK10 (human)): 98.7%
- residual activity (AKT3 (human)): 96.6%
- residual activity (MATK (human)): 94.2%
- residual activity (CSNK1G2 (human)): 96.8%
- residual activity (GRK6 (human)): 95.8%
- residual activity (CHUK (human)): 99.1%
- residual activity (CDK7 CCNH MNAT1 (human)): 93.6%
- residual activity (INSRR (human)): 94.8%
- residual activity (GRK5 (human)): 106%
- residual activity (PLK2 (human)): 102%
- residual activity (MKNK2 (human)): 87.1%
- residual activity (TAOK3 (human)): 75.3%
- residual activity (TTK (human)): 95.1%
- residual activity (PRKACG (human)): 98.1%
- residual activity (RPS6KA1 KD1 KD2 (human)): 70.4%
- residual activity [1]: 99.3%
- residual activity (CDC42BPA (human)): 81.9%
- residual activity (EGFR (human)): 87.4%
- residual activity (NEK1 (human)): 94.6%
- residual activity (CAMK1D (human)): 96.8%
- residual activity (STK38 (human)): 80.1%
- residual activity (EPHA6 (human)): 89.2%
- residual activity (DYRK2 (human)): 90.8%
- residual activity (TAOK2 (human)): 89.4%
- residual activity (CAMK2D (human)): 84.2%
- residual activity (PTK6 (human)): 82.3%
- residual activity (GRK7 (human)): 85.2%

SMILES: O=C1C(Cl)=C(N2C(=O)CCC2=O)C(=O)c2ccccc21
- residual activity (EPHB2 (human)): 98.7%
- residual activity (CSNK1A1 (human)): 99.2%
- residual activity (CAMKK2 (human)): 86.1%
- residual activity (TEC (human)): 101%
- residual activity (MARK1 (human)): 99.3%
- residual activity (PAK6 (human)): 89.6%
- residual activity (TLK2 (human)): 117%
- residual activity (ULK3 (human)): 102%
- residual activity (HIPK2 (human)): 104%
- residual activity (HIPK1 (human)): 104%
- residual activity (STK24 (human)): 87%
- residual activity (NUAK1 (human)): 105%
- residual activity (PHKG1 (human)): 96.5%
- residual activity (CDK3 CCNE1 (human)): 102%
- residual activity (ERBB4 (human)): 110%
- residual activity (MAPK10 (human)): 93.6%
- residual activity (AKT3 (human)): 105%
- residual activity (MATK (human)): 88%
- residual activity (CSNK1G2 (human)): 99.3%
- residual activity (GRK6 (human)): 98.5%
- residual activity (CHUK (human)): 101%
- residual activity (CDK7 CCNH MNAT1 (human)): 101%
- residual activity (INSRR (human)): 96.9%
- residual activity (GRK5 (human)): 91.5%
- residual activity (PLK2 (human)): 96%
- residual activity (MKNK2 (human)): 84.5%
- residual activity (TAOK3 (human)): 95.3%
- residual activity (TTK (human)): 108%
- residual activity (PRKACG (human)): 95.1%
- residual activity (RPS6KA1 KD1 KD2 (human)): 96.6%
- residual activity [1]: 107%
- residual activity (CDC42BPA (human)): 103%
- residual activity (EGFR (human)): 98.4%
- residual activity (NEK1 (human)): 90%
- residual activity (CAMK1D (human)): 102%
- residual activity (STK38 (human)): 102%
- residual activity (EPHA6 (human)): 89.5%
- residual activity (DYRK2 (human)): 98.6%
- residual activity (TAOK2 (human)): 99.2%
- residual activity (CAMK2D (human)): 109%
- residual activity (PTK6 (human)): 94.8%
- residual activity (GRK7 (human)): 109%

SMILES: Cc1cccc(-c2nc(C(C)(C)C)[nH]c2-c2ccc3c(c2)OCO3)n1
- residual activity (EPHB2 (human)): 93%
- residual activity (CSNK1A1 (human)): 96.5%
- residual activity (CAMKK2 (human)): 96%
- residual activity (TEC (human)): 123%
- residual activity (MARK1 (human)): 85.1%
- residual activity (PAK6 (human)): 103%
- residual activity (TLK2 (human)): 103%
- residual activity (ULK3 (human)): 80.4%
- residual activity (HIPK2 (human)): 101%
- residual activity (HIPK1 (human)): 101%
- residual activity (STK24 (human)): 100%
- residual activity (NUAK1 (human)): 97.3%
- residual activity (PHKG1 (human)): 87.6%
- residual activity (CDK3 CCNE1 (human)): 97.6%
- residual activity (ERBB4 (human)): 83.1%
- residual activity (MAPK10 (human)): 96%
- residual activity (AKT3 (human)): 94.7%
- residual activity (MATK (human)): 100%
- residual activity (CSNK1G2 (human)): 104%
- residual activity (GRK6 (human)): 101%
- residual activity (CHUK (human)): 108%
- residual activity (CDK7 CCNH MNAT1 (human)): 106%
- residual activity (INSRR (human)): 95.1%
- residual activity (GRK5 (human)): 108%
- residual activity (PLK2 (human)): 92.1%
- residual activity (MKNK2 (human)): 87.8%
- residual activity (TAOK3 (human)): 102%
- residual activity (TTK (human)): 89%
- residual activity (PRKACG (human)): 119%
- residual activity (RPS6KA1 KD1 KD2 (human)): 96.4%
- residual activity [1]: 96.1%
- residual activity (CDC42BPA (human)): 89.6%
- residual activity (EGFR (human)): 96.4%
- residual activity (NEK1 (human)): 78.9%
- residual activity (CAMK1D (human)): 102%
- residual activity (STK38 (human)): 91.7%
- residual activity (EPHA6 (human)): 92.7%
- residual activity (DYRK2 (human)): 108%
- residual activity (TAOK2 (human)): 87.6%
- residual activity (CAMK2D (human)): 100%
- residual activity (PTK6 (human)): 87.7%
- residual activity (GRK7 (human)): 103%

SMILES: COc1ccc(S(=O)(=O)N(CCO)c2ccccc2CN(C)C/C=C/c2ccc(Cl)cc2)cc1
- residual activity (EPHB2 (human)): 97.7%
- residual activity (CSNK1A1 (human)): 99.3%
- residual activity (CAMKK2 (human)): 90.7%
- residual activity (TEC (human)): 101%
- residual activity (MARK1 (human)): 98.4%
- residual activity (PAK6 (human)): 101%
- residual activity (TLK2 (human)): 96.6%
- residual activity (ULK3 (human)): 106%
- residual activity (HIPK2 (human)): 107%
- residual activity (HIPK1 (human)): 106%
- residual activity (STK24 (human)): 101%
- residual activity (NUAK1 (human)): 96.5%
- residual activity (PHKG1 (human)): 95.4%
- residual activity (CDK3 CCNE1 (human)): 103%
- residual activity (ERBB4 (human)): 104%
- residual activity (MAPK10 (human)): 95.5%
- residual activity (AKT3 (human)): 105%
- residual activity (MATK (human)): 101%
- residual activity (CSNK1G2 (human)): 103%
- residual activity (GRK6 (human)): 106%
- residual activity (CHUK (human)): 92.7%
- residual activity (CDK7 CCNH MNAT1 (human)): 97.6%
- residual activity (INSRR (human)): 97%
- residual activity (GRK5 (human)): 94.1%
- residual activity (PLK2 (human)): 102%
- residual activity (MKNK2 (human)): 102%
- residual activity (TAOK3 (human)): 91.2%
- residual activity (TTK (human)): 83.3%
- residual activity (PRKACG (human)): 104%
- residual activity (RPS6KA1 KD1 KD2 (human)): 108%
- residual activity [1]: 111%
- residual activity (CDC42BPA (human)): 100%
- residual activity (EGFR (human)): 106%
- residual activity (NEK1 (human)): 104%
- residual activity (CAMK1D (human)): 103%
- residual activity (STK38 (human)): 98.3%
- residual activity (EPHA6 (human)): 95.3%
- residual activity (DYRK2 (human)): 87.5%
- residual activity (TAOK2 (human)): 90.9%
- residual activity (CAMK2D (human)): 91.8%
- residual activity (PTK6 (human)): 89.3%
- residual activity (GRK7 (human)): 114%
